Legend:
[1] = system: non-malignant Caco-2 cells; assay: MTS cell viability assay, Caco-2; format: cell-based, human
Method: FIG. 13. Inhibition of cell viability by BKAc-Puro is presented in dose-response curve format for the same cell lines as in FIG. 8. The cell lines were treated with DMSO or the indicated doses of agent (4.22, 8.44, 16.9, 33.8, 67.5, or 135 μM) for 5 d followed by MTS assay. Data represent mean values of triplicate mesurements±s.d. (n=3). IC50 values were fit by logistic regression.
(§1) Cell number was determined by cell counting using improved Neubauer hemacytometer. Cell viability was calculated as the number of viable cells divided by the total number of cells using Trypan Blue Stain (Invitrogen) to distinguish non-viable cells. Data were obtained from duplicated samples with quadruplicate measurements. MTS based cell viability assay was performed using CellTiter 96 Aqueous Cell Proliferation Assay (Promega) according to the manufacturer's instruction. […] After additional 2-3 h incubation, the absorbance of the formazan at 490 nm was measured by the microplate reader. […] Determination of non-viable cells using PI staining was performed by adding 1 μg/ml of PI solution (Sigma) to the cell culture, prior to the examination under fluorescence microscopy (Axiovert 3, Carl Zeiss) through a×32 objective equipped with a digital imaging processor (Infinity 3, Lumenera).

CCD841-CoN cells = assay: MTS cell viability assay, normal colon cells; format: cell-based, human; settings: negative control in pancreatic and prostate panels
Method: FIG. 15. Inhibition of cell viability by BKAc-Puro. The cell lines were grown and analyzed as in FIG. 12.
FIG. 18. Selective cytotoxicity by BKAc-Puro on pancreatic cancer cells. Pancreatic cancer (BXPC-3 and Miapaca-2), colon cancer (HCT116 as a positive control sensitive to the drug), and normal colon (CCD841-CoN as a negative control) cells were grown and analyzed as in FIG. 13. BKAc-Puro can effectively cause cell death on pancreatic cancer cells (BXPC-3 and MiaPaca-2) that are known to resistant to conventional chemotherapeutic drugs including 5-FU and Gemicitabine.
FIG. 19. Selective cytotoxicity by BKAc-Puro on prostate cancer cells. Prostate cancer (PC-3, DU-145, and LNCaP), colon cancer (HCT116 as a positive control sensitive to the drug), and normal colon (CCD841-CoN as a negative control) cells were grown and analyzed as in FIG. 13. BKAc-Puro can effectively cause cell death on prostate cancer cells.
Cell number was determined by cell counting using improved Neubauer hemacytometer. Cell viability was calculated as the number of viable cells divided by the total number of cells using Trypan Blue Stain (Invitrogen) to distinguish non-viable cells. Data were obtained from duplicated samples with quadruplicate measurements. […] After additional 2-3 h incubation, the absorbance of the formazan at 490 nm was measured by the microplate reader. […]

[2] = system: malignant colon cancer cells with high HDAC and CTSL activity; assay: Cell number, trypan blue viability and PI staining, malignant colon cancer cells; format: cell-based, human; settings: 54 μM
Method: FIG. 9. The colon cancer cell lines were grown for 5 d either with vehicle control DMSO (gray symbols) or 54 μM BKAc-Puro (red and blue symbols), and cell number was determined at the indicated time points.
FIG. 10. The cell lines were grown as in FIG. 8, cell viability was determined by trypan blue at the indicated time points, and is presented as the percentage of live cells treated with vehicle control (gray symbols) or BKAc-Puro (red and blue symbols).
FIG. 11. The cell lines were grown as in FIG. 8, and dead cells were determined after 80 h by PI signal under fluorescent microscope. BF, bright field. PI, fluorescent PI channel.
FIG. 12. Selective cytotoxicity by BKAc-Puro. The cell lines were grown and analyzed as in FIG. 10. […]
as §1, with “cells.” for “cells. Data were obtained from duplicated samples with quadruplicate measurements. MTS based cell viability assay was performed using CellTiter 96 Aqueous Cell Proliferation Assay (Promega) according to the manufacturer's instruction.”

[3] = system: breast cancer cells (MCF-7 and MDA-MB-231); assay: PI staining cytotoxicity, breast cancer cells; format: cell-based, human
Method: FIG. 17. Selective cytotoxicity by BKAc-Puro on breast cancer cells. Normal mammary gland epithelial cells (Eph4) and breast cancer cells (MCF-7 and MDA-MB-231) were grown and analyzed as in FIG. 10. BF, bright field. PI, fluorescent PI channel. BKAc-Puro can selectively cause cell death in breast cancer cells (MCF-7 and MDA-MB-231) while leaving normal Eph4 cells unharmed.
as §1

[4] = system: HT29 xenograft tumor, muscle and kidney; assay: Immunological detection of Puro-labeled proteins in tissues of HT29 xenograft mice; format: in vivo; settings: 150 mg/kg/dose daily intraperitoneal for 3 d
Method: FIG. 29. In vivo anticancer efficacy of Boc-KAc-Puro. (a) Tumor growth in HCT116 xenograft model. Animals were treated with acidified saline control or Boc-KAc-Puro (50 or 150 mg/kg). Values are mean±s.d. (n=5 mice per group). ***P<0.001 compared to the control group. P=0.000716 (50 mg/kg), P=0.000349 (150 mg/kg) at 10 d. (b) Body weight change during the treatment in a was monitored as a sign of general animal health. Values are mean±s.d. (c) Tumor growth in HT29 xenograft model. Animals were treated with acidified saline control or Boc-KAc-Puro (150 mg/kg). Values are mean±s.d. (n=5 mice per group). ***P<0.001 compared to the control group. P=0.000514 (150 mg/kg) at 10 d. (d) Body weight change during the treatment in c was monitored as a sign of general animal health. Values are mean±s.d. (e) Levels of Puro-incorporated proteins were monitored by immunoblotting. […]
Cultured cells or tissue samples were sonicated in RIPA lysis buffer (1% NP-40, 0.1% SDS, 50 mM Tris-HCl pH 7.4, 150 mM NaCl, 0.5% sodium deoxycholate, 1 mM EDTA) supplemented with PMSF and protease inhibitor cocktail (Roche) on ice followed by clarification. […] Proteins of interest were detected with anti-mouse secondary antibody by chemiluminescence (ECL Kit, GE Healthcare Life Sciences). […]

Excerpt for HCT116 xenograft tumors: HCT116 cells were implanted subcutaneously into female nude mice. When the developed tumors reached 200 mm^3, animals were intraperitoneally injected by the indicated dose of the compound or vehicle control (DMSO). Tumor volume was estimated by the equation vol=(a×b^2)/2, where vol, a, and b represent volume, the length of the major axis, and the length of the minor axis, respectively. […] (b) Body weight change during the treatment in a. Value is expressed in percent change compared to the day of the first treatment.
HCT116 cells were implanted subcutaneously into female nude mice. When palpable tumors reached 50-150 mm^3, animals were randomized and treated by the indicated dose of the compound or vehicle control (DMSO) via intraperitoneal injection. Tumor incidence is presented as number of mice developed tumor (volume>300 mm^3) after 2 weeks of daily treatment/number of mice treated. Tumor volume was estimated by the equation vol=(a×b^2)/2, where vol, a, and b represent volume, the length of the major axis, and the length of the minor axis, respectively.
The growth inhibitory effects of the compounds on size-matched xenografts are examined by subcutaneous implantation of HCT116 cells into nude mice. HCT116 cells are injected subcutaneously and allowed to develop palpable tumors (50-150 mm^3) before initiation of drug administration. Mice (5-10 animals per group) are treated with the vehicle (DMSO or PBS) or the prodrugs by intraperitoneal administration. […] Tumor volumes are approximated by using the equation vol=(a×b^2)/2, where vol, a, and b represent volume, the length of the major axis, and the length of the minor axis, respectively. Relative tumor volume is calculated by dividing tumor volume by that on day 0 (the day of treatment initiation). The weight of the mice is checked to monitor unfavorable effects by the compounds being tested and upon any indication of distress the mice is humanely euthanized.

SMILES: COc1ccc(C[C@H](NC(=O)[C@H](CCCCNC(C)=O)NC(=O)OC(C)(C)C)C(=O)N[C@H]2[C@@H](O)[C@H](n3cnc4c(N(C)C)ncnc43)O[C@@H]2CO)cc1 [BKAc-Puro, N-[3′-(α-Amino-p-methoxyhydrocinnamamido)-3′-deoxy-N,N-dimethyldenosinyl]-N-α-(t-butoxycarbonyl)-N-ε-acetyl-L-lysineamide]
- highest inactive dose relative to dose of parental Puro effective to these cells ([1]; Caco-2, 135 μM BKAc-Puro vs parental Puro): more than 30 times
- IC50 ([1]; MTS, 5 d, sufficient inhibition not achieved with doses up to 135 μM): > 135 µM
- effect on normal colon cells (CCD841-CoN cells): relatively little effect
- cell proliferation (cell number) ([2]; 5 d, all four malignant cells): impaired the proliferation
- cell death (trypan blue exclusion, morphology, PI staining) ([2]; colon cell line panel): massive cell death wass detected only in the malignant cells
- cell death [3]: selectively caused cell death
- intensity of Puro incorporation in tissues [4]: substantially greater in tumors compared with normal muscle and kidney
- tumor incidence (tumor volume above threshold after 2 weeks of daily treatment) (HCT116 xenograft tumors; 200 mg/kg, intraperitoneal): no tumors greater than 300 mm^2 were observed
- tumor growth (HCT116 xenograft tumors; intraperitoneal, tumors 200 mm^3 at start): inhibition of tumor growth
- toxicity in tumor incidence study (HCT116 xenograft tumors; mouse, in vivo): no toxicity was observed

Reference: US9872919B2, “Prodrugs for selective anticancer therapy” (THE RESEARCH FOUNDATION FOR THE STATE UNIVERSITY OF NEW YORK, priority 2012, dated 2018)
